What all share (format): cell-based, human
Assay [1] relates to GFP-expressing A549 cells. As to the kind of experiment: siRNA-mediated GFP knockdown. The settings on record: lipid-siRNA complexes following electroporation, no EV. As for the experimental part: Quantification of siRNA knockdown in A549 cells: To evaluate the knockdown efficiency of EV-mediated siRNA delivery within the constitutively expressing-GFP-A549 cells over time, GFP fluorescence was measured and quantified using a plate reader (Cytation 5) every day for 12 days (34). To ensure the decrease of green fluorescence intensity is due to the RNA interference of GFP-siRNA in the cells and not caused by the cytotoxicity of the delivery system, each sample type or condition was delivered with scrambled siRNA as a control. The knockdown efficiency was calculated using the below equation: […]
where Fsi is the fluorescence of the well using GFP-siRNA, Fsc is the fluorescence of the well using corresponding scrambled siRNA, Fbg is the fluorescence background of the media without cells, Fosi is the initial fluorescence of the well just prior to delivery for the GFP-siRNA formulations and Fosc is the initial fluorescence of the well prior to delivery of the corresponding scrambled siRNA control group. Commercial Lipofectamine® RNAiMax formulation was used as a positive control to compare the knockdown efficiency between samples. The formulation was prepared according to the manufacturer's instruction. Briefly, 0.3 μl of Lipofectamine® RNAiMax was used to deliver 1 pmol of siRNA. […] Area under the curve (knockdown efficiency vs time) was calculated to determine the difference in duration using GraphPad Prism 7 software.
siRNA knockdown efficiency: To evaluate the knockdown efficiency of LbL-EV mediated siRNA delivery within GFP-expressing A549 cells, GFP fluorescence was measured and quantified using the same apparatus (Cytation 5) every day as previously described (34, 63). The knockdown efficiency of siRNA-GFP was calculated by normalizing each sample type/condition to each individual negative control treated with scrambled siRNA. […] Area under the curve (knockdown efficiency vs time) was calculated by GraphPad Prism 7 software to determine the overall knockdown efficiency of each condition. […]

The test system of a further assay is CCL-210 cells. The experiment in a line: DOX cancer killing efficiency (MTS assay). The following applies: CCL210, 3 days incubation. As to the method:
(§1) DOX cancer killing efficiency: The effects of DOX-loaded vesicles on A549/CCL210 cells were done by CellTiter 96® Aqueous Cell Proliferation assay (Promega) (MTS assay) to assess relative metabolic activity of the cells. Prior to MTS treatment, DOX-loaded vesicles were incubated with cultured A549/CCL210 cells at 60-70% confluency for 3 days at varying doses. The MTS assays were conducted after incubation for 3 days, following the manufacturer's instructions. Untreated A549 or CCL210 cells were used as positive control groups (assuming 100% metabolic activity) for normalization. Free DOX (unencapsulated) and DOX-loaded PLGA NPs were prepared as comparison groups. To obtain dose-response curves, metabolic activity was plotted versus the amount of DOX administered, which was determined based on spectrophotometric analysis of eEV/LbL-eEV/PLGA NPs. The sigmoidal dose-response curves were fitted with Hill's equation using GraphPad software: […]
(§2) where Max is the Y value at the top plateau and Min is the Y value at the bottom plateau. IC50 (inhibitory concentration, 50%) is the X value when the response is halfway between Min and Max.

Another assay concerns A549 cells. As to the kind of experiment: DOX cancer killing efficiency (MTS assay). The following applies: A549, 3 days incubation. As for the experimental part: as §1, §2
(Tetrazolium assays rely on reduction of a dye to a coloured formazan, in cell work by metabolically active cells.)

Consider `CCCCCCCCCCCCCCCC(=O)OC[C@H](COP(=O)([O-])OCC[N+](C)(C)C)OC(=O)CCCCCCCCCCCCCCC` [DPPC, 1,2-dipalmitoyl-sn-glycero-3-phosphocholine], for which, in assay [1], the “GFP down-regulation by lipid-siRNA complexes” value is on record as “not able to down-regulate GFP expression”.
Still for that read-out and setting: in the case of `CCCCCCCC/C=C\CCCCCCCC(=O)O[C@H](COC(=O)CCCCCCCCCCCCCCC)COP(=O)(O)OCC(O)CO` (some centres unmarked) [POPG, 1-Palmitoyl-2-oleoyl-sn-glycero-3-phosphoglycerol] it was “not able to down-regulate GFP expression”.
As for `COc1cccc2c1C(=O)c1c(O)c3c(c(O)c1C2=O)C[C@@](O)(C(=O)CO)C[C@@H]3O[C@H]1C[C@H](N)[C@H](O)[C@H](C)O1` [Free DOX, doxorubicin], in the assay with CCL-210 cells, the “IC10 of DOX” value is 0.200 μ/ml, the “IC50 of DOX” value is given as 0.400 ± 0.024 μ/ml and the “IC90 of DOX” value stood at 0.780 μ/ml. In addition, in the assay on A549 cells, the “IC10 of DOX” value was 0.510 μ/ml and the “IC90 of DOX” value is reported as 0.690 μ/ml.
With `CCCCCCCC/C=C\CCCCCCCC(=O)O[C@H](COC(=O)CCCCCCCCCCCCCCC)COP(=O)([O-])OCC[N+](C)(C)C` [POPC, 1-Palmitoyl-2-oleoyl-sn-glycero-3-phosphocholine], the “GFP down-regulation by lipid-siRNA complexes” value in assay [1] is given as “not able to down-regulate GFP expression”.
